Tested on: facial Rosacea
Test: clinical type observations of topical application in facial Rosacea
Assay type: in vivo

S=[Se]=S [selenium sulfide]
redness, small dilated blood vessels and small red bumps characterizing the facial Rosacea (clinical type observations): observed to be decreased
effectiveness in facial Rosacea (fluid form selenium sulfide of 1% strength): Effective in most instances
redness, flushing and inflammation associated with facial Rosacea and skin erythema (topical application, clinical type observations): effective in significantly reducing

Reference: patent US20170112873A1, “Method and Topical Composition for the Treatment of Rosacea and Skin Erythema Using Selenium Sulfide” (priority 2015, published 2017)
